For 31 molecules, IC50 results are on record in patent publication US7750003B2, “Compounds-943” (AstraZeneca AB, priority 2006, dated 2010).

As a reminder, the IC50 is the concentration needed to halve the response being measured.

Chain of recombinant mTOR (FLAG-tagged, residues 1362-2549) (P42345 1362-2549): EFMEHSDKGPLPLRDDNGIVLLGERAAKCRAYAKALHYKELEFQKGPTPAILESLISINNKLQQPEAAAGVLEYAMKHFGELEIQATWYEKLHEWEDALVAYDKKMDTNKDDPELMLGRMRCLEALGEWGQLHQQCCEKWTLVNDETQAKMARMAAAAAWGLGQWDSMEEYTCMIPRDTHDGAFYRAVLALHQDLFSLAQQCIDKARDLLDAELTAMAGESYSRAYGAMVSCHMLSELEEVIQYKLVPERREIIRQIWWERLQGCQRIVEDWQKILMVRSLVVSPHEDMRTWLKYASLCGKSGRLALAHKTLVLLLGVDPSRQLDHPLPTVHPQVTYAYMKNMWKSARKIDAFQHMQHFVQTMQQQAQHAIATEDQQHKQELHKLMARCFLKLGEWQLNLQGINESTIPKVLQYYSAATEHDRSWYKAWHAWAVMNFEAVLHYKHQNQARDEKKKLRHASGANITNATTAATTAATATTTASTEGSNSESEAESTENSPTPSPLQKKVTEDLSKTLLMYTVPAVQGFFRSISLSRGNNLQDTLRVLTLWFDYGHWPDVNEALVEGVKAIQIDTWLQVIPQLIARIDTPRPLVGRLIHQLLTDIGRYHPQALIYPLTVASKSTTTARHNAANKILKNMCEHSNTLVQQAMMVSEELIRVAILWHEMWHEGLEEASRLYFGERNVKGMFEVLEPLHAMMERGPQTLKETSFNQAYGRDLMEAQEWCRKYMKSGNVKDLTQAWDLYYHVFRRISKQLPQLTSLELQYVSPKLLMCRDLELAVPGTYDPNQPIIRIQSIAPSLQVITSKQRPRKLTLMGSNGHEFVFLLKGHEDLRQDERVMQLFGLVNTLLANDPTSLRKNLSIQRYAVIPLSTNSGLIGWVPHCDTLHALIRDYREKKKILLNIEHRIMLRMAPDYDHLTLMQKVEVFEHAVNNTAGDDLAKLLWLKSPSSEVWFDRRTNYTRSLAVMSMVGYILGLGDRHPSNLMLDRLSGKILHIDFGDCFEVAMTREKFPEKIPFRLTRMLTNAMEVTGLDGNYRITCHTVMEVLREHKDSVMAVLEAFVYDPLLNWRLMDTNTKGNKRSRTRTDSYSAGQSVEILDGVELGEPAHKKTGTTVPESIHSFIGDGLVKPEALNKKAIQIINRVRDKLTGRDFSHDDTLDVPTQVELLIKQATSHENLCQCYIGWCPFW

The experiment addresses recombinant mTOR (FLAG-tagged, residues 1362-2549) (Homo sapiens, UniProt P42345). Description: In vitro mTOR kinase assay (Test (a), AlphaScreen). It counts as biochemical. The note with it: ATP 20 μM, read-out: Test (a): IC50 versus mTOR kinase. In outline: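 AlphaScreen read-out: a phospho-T389 p70 S6K antibody on acceptor beads captures the phosphorylated biotin-peptide on donor beads, with signal loss indicating inhibition.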
On the technique in general: Bead proximity is the source of the signal in Alpha formats.
Consider `C[C@H]1COCCN1c1cc(CS(C)(=O)=O)nc(-c2ccc(NC(=O)NC(C)(C)C)cc2)n1` [Example 35f, 1-[4-[4-[(3S)-3-methylmorpholin-4-yl]-6-(methylsulfonylmethyl)pyrimidin-2-yl]phenyl]-3-tert-butyl-urea], for which the IC50 is 820 nM.

`C[C@H]1COCCN1c1cc(CS(C)(=O)=O)nc(-c2ccc(NC(=O)N3CCCC(O)C3)cc2)n1` (stereo partly drawn) [Example 35i, 3-hydroxy-N-[4-[4-[(3S)-3-methylmorpholin-4-yl]-6-(methylsulfonylmethyl)pyrimidin-2-yl]phenyl]piperidine-1-carboxamide]: the IC50 is 770 nM.

For the molecule `C[C@H]1COCCN1c1cc(CS(C)(=O)=O)nc(-c2ccc(NC(=O)N(C)CCN(C)C)cc2)n1` [Example 35j, 1-(2-dimethylaminoethyl)-1-methyl-3-[4-[4-[(3S)-3-methylmorpholin-4-yl]-6-(methylsulfonylmethyl)pyrimidin-2-yl]phenyl]urea], the concentration for half-maximal inhibition (IC50) came out at 3600 nM.

For `C[C@H]1COCCN1c1cc(CS(C)(=O)=O)nc(-c2ccc(NC(=O)NCCN3CCOCC3)cc2)n1` [Example 35k, 1-[4-[4-[(3S)-3-methylmorpholin-4-yl]-6-(methylsulfonylmethyl)pyrimidin-2-yl]phenyl]-3-(2-morpholin-4-ylethyl)urea], the half-maximal inhibitory concentration (IC50) turned out to be 1200 nM.

`C[C@H]1COCCN1c1cc(CS(C)(=O)=O)nc(-c2ccc(NC(=O)NCc3ncc[nH]3)cc2)n1` [Example 35l, 3-(1H-imidazol-2-ylmethyl)-1-[4-[4-[(3S)-3-methylmorpholin-4-yl]-6-(methylsulfonylmethyl)pyrimidin-2-yl]phenyl]urea]: the 50% inhibitory concentration (IC50) is 470 nM.

Consider `C[C@H]1COCCN1c1cc(CS(C)(=O)=O)nc(-c2ccc(NC(=O)N(C)C3CC3)cc2)n1` [Example 35m, 1-cyclopropyl-1-methyl-3-[4-[4-[(3S)-3-methylmorpholin-4-yl]-6-(methylsulfonylmethyl)pyrimidin-2-yl]phenyl]urea], for which the IC50 was 2000 nM.

On to `C[C@H]1COCCN1C(=O)Nc1ccc(-c2nc(CS(C)(=O)=O)cc(N3CCOC[C@@H]3C)n2)cc1` [Example 35n, (3S)-3-methyl-N-[4-[4-[(3S)-3-methylmorpholin-4-yl]-6-(methylsulfonylmethyl)pyrimidin-2-yl]phenyl]morpholine-4-carboxamide], for which the IC50 worked out at 1100 nM.

Regarding `C[C@H]1COCCN1C(=O)c1cc(N2CCOC[C@@H]2C)nc(-c2ccc(NC(=O)NC3CC3)cc2)n1` [Example 36, 3-Cyclopropyl-1-[4-[4-[(3S)-3-methylmorpholine-4-carbonyl]-6-[(3S)-3-methylmorpholin-4-yl]pyrimidin-2-yl]phenyl]urea], the half-maximal inhibitory concentration (IC50) worked out at 62 nM.

Regarding `C[C@H]1COCCN1c1cc(C(=O)NC2CC2)nc(-c2ccc(NC(=O)NC3CC3)cc2)n1` [Example 36a, N-cyclopropyl-2-[4-(cyclopropylcarbamoylamino)phenyl]-6-[(3S)-3-methylmorpholin-4-yl]pyrimidine-4-carboxamide], the IC50 came out at 2900 nM.

Take `C[C@H]1COCCN1c1cc(C(=O)N2CCN(C)CC2)nc(-c2ccc(NC(=O)NC3CC3)cc2)n1` [Example 36b, 3-cyclopropyl-1-[4-[4-[(3S)-3-methylmorpholin-4-yl]-6-(4-methylpiperazine-1-carbonyl)pyrimidin-2-yl]phenyl]urea]: the IC50 was 180 nM.

For `C[C@H]1COCCN1c1cc(C(C)(C)O)nc(-c2ccc(NC(=O)NC3CC3)cc2)n1` [Example 37, 3-Cyclopropyl-1-[4-[4-(2-hydroxypropan-2-yl)-6-[(3S)-3-methylmorpholin-4-yl]pyrimidin-2-yl]phenyl]urea], the IC50 came to 51 nM.

`C[C@H]1COCCN1c1cc(C(C)(C)O)nc(-c2ccc(NC(=O)NCc3cnn(C)c3)cc2)n1` [Example 38, 1-[4-[4-(2-Hydroxypropan-2-yl)-6-[(3S)-3-methylmorpholin-4-yl]pyrimidin-2-yl]phenyl]-3-[(1-methylpyrazol-4-yl)methyl]urea]: the 50% inhibitory concentration (IC50) is 1300 nM.

Turning to `C[C@H]1COCCN1c1cc(CO)nc(-c2ccc(NC(=O)Nc3ccon3)cc2)n1` [Example 39, 1-[4-[4-(Hydroxymethyl)-6-[(3S)-3-methylmorpholin-4-yl]pyrimidin-2-yl]phenyl]-3-(1,2-oxazol-3-yl)urea], the IC50 was determined as 75 nM.

For `C[C@H]1COCCN1c1cc(CO)nc(-c2ccc(NC(=O)NC3CC3)cc2)n1` [Example 42, 3-Cyclopropyl-1-[4-[4-(hydroxymethyl)-6-[(3S)-3-methylmorpholin-4-yl]pyrimidin-2-yl]phenyl]urea], the concentration for half-maximal inhibition (IC50) amounted to 190 nM.

As to `C[C@H]1COCCN1c1cc(CS(=O)(=O)c2ccncc2)nc(-c2ccc(NC(=O)NC3CC3)cc2)n1` [Example 43, 3-Cyclopropyl-1-[4-[4-[(3S)-3-methylmorpholin-4-yl]-6-(pyridin-4-ylsulfonylmethyl)pyrimidin-2-yl]phenyl]urea], the IC50 stood at 76 nM.

For `CNC(=O)CS(=O)(=O)Cc1cc(N2CCOC[C@@H]2C)nc(-c2ccc(NC(=O)NC3CC3)cc2)n1` [Example 43a, 2-[[2-[4-(cyclopropylcarbamoylamino)phenyl]-6-[(3S)-3-methylmorpholin-4-yl]pyrimidin-4-yl]methylsulfonyl]-N-methyl-acetamide], the IC50 is 87 nM.

`C[C@H]1COCCN1c1cc(CS(=O)(=O)c2ccc(F)cc2)nc(-c2ccc(NC(=O)NC3CC3)cc2)n1` [Example 43b, 3-cyclopropyl-1-[4-[4-[(4-fluorophenyl)sulfonylmethyl]-6-[(3S)-3-methylmorpholin-4-yl]pyrimidin-2-yl]phenyl]urea]: the half-maximal inhibitory concentration (IC50) was determined as 150 nM.

In the case of `CC(=O)Nc1ccc(S(=O)(=O)Cc2cc(N3CCOC[C@@H]3C)nc(-c3ccc(NC(=O)NC4CC4)cc3)n2)cc1` [Example 43c, N-[4-[[2-[4-(cyclopropylcarbamoylamino)phenyl]-6-[(3S)-3-methylmorpholin-4-yl]pyrimidin-4-yl]methylsulfonyl]phenyl]acetamide], the IC50 turned out to be 13 nM.

For `C[C@H]1COCCN1c1cc(CS(=O)(=O)CCO)nc(-c2ccc(NC(=O)NC3CC3)cc2)n1` [Example 43d, 3-cyclopropyl-1-[4-[4-(2-hydroxyethylsulfonylmethyl)-6-[(3S)-3-methylmorpholin-4-yl]pyrimidin-2-yl]phenyl]urea], the IC50 was 11 nM.

With `C[C@H]1COCCN1c1cc(CS(=O)(=O)c2nccs2)nc(-c2ccc(NC(=O)NC3CC3)cc2)n1` [Example 43e, 3-cyclopropyl-1-[4-[4-[(3S)-3-methylmorpholin-4-yl]-6-(1,3-thiazol-2-ylsulfonylmethyl)pyrimidin-2-yl]phenyl]urea], the 50% inhibitory concentration (IC50) came to 130 nM.

For `C[C@H]1COCCN1c1cc(CS(=O)(=O)c2ccccc2C(F)(F)F)nc(-c2ccc(NC(=O)NC3CC3)cc2)n1` [Example 43f, 3-cyclopropyl-1-[4-[4-[(3S)-3-methylmorpholin-4-yl]-6-[[2-(trifluoromethyl)phenyl]sulfonylmethyl]pyrimidin-2-yl]phenyl]urea], the IC50 was 110 nM.

As to `C[C@H]1COCCN1c1cc(CS(=O)(=O)CC(N)=O)nc(-c2ccc(NC(=O)NC3CC3)cc2)n1` [Example 43h, 2-[[2-[4-(cyclopropylcarbamoylamino)phenyl]-6-[(3S)-3-methylmorpholin-4-yl]pyrimidin-4-yl]methylsulfonyl]acetamide], the IC50 turned out to be 7.1 nM.

Consider `Cc1csc(S(=O)(=O)Cc2cc(N3CCOC[C@@H]3C)nc(-c3ccc(NC(=O)NC4CC4)cc3)n2)n1` [Example 43i, 3-cyclopropyl-1-[4-[4-[(3S)-3-methylmorpholin-4-yl]-6-[(4-methyl-1,3-thiazol-2-yl)sulfonylmethyl]pyrimidin-2-yl]phenyl]urea], for which the IC50 was 58 nM.

In the case of `CC(=O)NCCS(=O)(=O)Cc1cc(N2CCOC[C@@H]2C)nc(-c2ccc(NC(=O)NC3CC3)cc2)n1` [Example 43j, N-[2-[[2-[4-(cyclopropylcarbamoylamino)phenyl]-6-[(3S)-3-methylmorpholin-4-yl]pyrimidin-4-yl]methylsulfonyl]ethyl]acetamide], the IC50 came out at 1800 nM.

For `CN(CCO)C(=O)Nc1ccc(-c2nc(CS(C)(=O)=O)cc(N3CCOCC3)n2)cc1` [Example 45, 1-(2-Hydroxyethyl)-1-methyl-3-[4-[4-(methylsulfonylmethyl)-6-morpholin-4-yl-pyrimidin-2-yl]phenyl]urea], the IC50 stood at 660 nM.

For the molecule `CS(=O)(=O)Cc1cc(N2CCOCC2)nc(-c2ccc(NC(=O)N3CCCCC3)cc2)n1` [Example 45a, N-[4-[4-(methylsulfonylmethyl)-6-morpholin-4-yl-pyrimidin-2-yl]phenyl]piperidine-1-carboxamide], the half-inhibitory concentration (IC50) was found to be 630 nM.

Consider `C[C@H]1COCCN1c1cc(CS(C)(=O)=O)nc(-c2ccc(NC(=O)N3CCC(N(C)C)CC3)cc2)n1` [Example 45ab, 4-dimethylamino-N-[4-[4-[(3S)-3-methylmorpholin-4-yl]-6-(methylsulfonylmethyl)pyrimidin-2-yl]phenyl]piperidine-1-carboxamide], for which the IC50 worked out at 390 nM.

For `CC(C)CNC(=O)Nc1ccc(-c2nc(CS(C)(=O)=O)cc(N3CCOCC3)n2)cc1` [Example 45b, 1-(2-methylpropyl)-3-[4-[4-(methylsulfonylmethyl)-6-morpholin-4-yl-pyrimidin-2-yl]phenyl]urea], the IC50 was 120 nM.

Turning to `COCCCNC(=O)Nc1ccc(-c2nc(CS(C)(=O)=O)cc(N3CCOCC3)n2)cc1` [Example 45c, 1-(3-methoxypropyl)-3-[4-[4-(methylsulfonylmethyl)-6-morpholin-4-yl-pyrimidin-2-yl]phenyl]urea], the IC50 worked out at 82 nM.

For the molecule `CN(C)CCCCNC(=O)Nc1ccc(-c2nc(CS(C)(=O)=O)cc(N3CCOCC3)n2)cc1` [Example 45d, 1-(4-dimethylaminobutyl)-3-[4-[4-(methylsulfonylmethyl)-6-morpholin-4-yl-pyrimidin-2-yl]phenyl]urea], the IC50 stood at 560 nM.

As for `CS(=O)(=O)Cc1cc(N2CCOCC2)nc(-c2ccc(NC(=O)NCCN3CCNC3=O)cc2)n1` [Example 45e, 1-[4-[4-(methylsulfonylmethyl)-6-morpholin-4-yl-pyrimidin-2-yl]phenyl]-3-[2-(2-oxoimidazolidin-1-yl)ethyl]urea], the IC50 was 560 nM.
